Values quoted from earlier work, collected in US7014866B2, “High dose solid unit oral pharmaceutical dosage form of amorphous nelfinavir mesylate and process for making same” (Hoffmann-La Roche Inc., priority 2001, dated 2006).
Structures can show the parent of a compound that is named as a salt.

Conditions: water at pH less than or equal to 4

solubility in water: slightly soluble
Compound: Cc1c(O)cccc1C(=O)N[C@@H](CSc1ccccc1)[C@H](O)CN1C[C@H]2CCCC[C@H]2C[C@H]1C(=O)NC(C)(C)C [Nelfinavir mesylate]
